Experimental data from patent publication US9950993B2 (Rutgers, The State University of New Jersey, priority 2015, dated 2018).

System: Escherichia coli W4573
Experiment: Test A: MIC-based assay for efflux pump inhibition (enhancement of minocycline MIC)
Type: cell-based
Conditions: ratio of minocycline MIC in absence to MIC in presence of test compound, test compound at 12.5 ug/ml (27-48 μM)
Experimental: Test A. Minimum Inhibitory Concentration (MIC)-Based Assay for Efflux Pump Inhibition:
MIC-based assays were used to evaluate the impact of potential efflux pump inhibiting (EPI) compounds on the MIC of minocycline, an antibiotic known to be a substrate for Gram-negative bacterial efflux pumps. The assays were conducted in accordance with Clinical and Laboratory Standards Institute (CLSI) guidelines for broth microdilution, with the modification that assays were conducted in the presence and absence of the test EPI compounds. When present, the EPI compounds were added to cation-adjusted Mueller-Hinton (CAMH) broth (Becton, Dickinson and Co., Franklin Lakes, N.J.) at a final concentration of 12.5 µg/mL.
Log-phase Gram-negative bacteria were added to 96-well microtiter plates (at 5×10^5 colony forming units (CFU) per mL) containing two-fold serial dilutions of minocycline in CAMH broth either in the absence or presence of the test EPI compounds. In all assays, each serial dilution of minocycline was present in duplicate. The final volume in each well was 0.1 mL, and the microtiter plates were incubated aerobically for 24 hours at 37° C. Bacterial growth was then monitored by measuring the optical density (OD) at 600 nm using a VersaMax® plate reader (Molecular Devices, Inc., Sunnyvale, Calif.), with the MIC being defined as the lowest compound concentration at which growth was ≥90% inhibited compared to antibiotic-free control. The following Gram-negative bacterial strains were included in these assays:
Escherichia coli W4573, ATCC 25922, and ATCC BAA-201 (an extended spectrum […] (ESBL)-producing strain that expresses the TEM-3 β-lactamase).
The efflux pump mutant E. coli strain N43 (acrA1) was used as a positive control.
The enhancement is the ratio of the minocycline MIC in the absence of test compound to the minocycline MIC in the presence of test compound.

Structure (SMILES) | Enhancement
NCCC[C@H](N)CNC(=O)CC(c1ccccc1)c1ccccc1 [Example 9, (S)—N-(2,5-diaminopentyl)-3,3-diphenylpropanamide] | 8
NCCC[C@H](N)CNC(=O)C(CCc1ccccc1)CCc1ccccc1 [Example 1, (S)—N-(2,5-diaminopentyl)-2-phenethyl-4-phenylbutanamide] | 8
COc1ccc(CCC(CCc2ccccc2)C(=O)NC[C@@H](N)CCCN)cc1 (stereo partly shown) [Example 11] | 4
NCCC[C@H](N)CNC(=O)C(CCc1ccccc1)Cc1ccccc1 (stereo partly drawn) [Example 6, 2-benzyl-N—((S)-2,5-diaminopentyl)-4-phenylbutanamide] | 4
NC[C@@H](N)CCCNC(=O)C(CCc1ccccc1)CCc1ccccc1 [Example 5, (S)—N-(4,5-diaminopentyl)-2-phenethyl-4-phenylbutanamide] | 2
NCCC[C@H](N)CNC(=O)CCCc1ccccc1 [Example 10, (S)—N-(2,5-diaminopentyl)-4-phenylbutanamide] | 4
NCCC[C@H](N)CNC(=O)CC(Cc1ccccc1)Cc1ccccc1 [Example 12, (S)-3-Benzyl-N-(2,5-diaminopentyl)-4-phenylbutanamide] | 16
NCCC[C@H](N)CNC(=O)C(Cc1ccccc1)Cc1ccccc1 [Example 7, (S)-2-benzyl-N-(2,5-diaminopentyl)-3-phenylpropanamide] | 8
NCCC[C@H](N)CNC(=O)CC(CCc1ccccc1)CCc1ccccc1 [Example 13, (S)—N-(2,5-diaminopentyl)-3-phenethyl-5-phenylpentanamide] | 512
NCC[C@H](N)CNC(=O)C(CCc1ccccc1)CCc1ccccc1 [Example 3, (S)—N-(2,4-diaminobutyl)-2-phenethyl-4-phenylbutanamide] | 8
NCCC[C@@H](N)CNC(=O)C(CCc1ccccc1)CCc1ccccc1 [Example 2, (R)—N-(2,5-diaminopentyl)-2-phenethyl-4-phenylbutanamide] | 64
NCCC[C@H](N)CNC(=O)C(c1ccccc1)c1ccccc1 [Example 8, (S)—N-(2,5-diaminopentyl)-2,2-diphenylacetamide] | 4
NC[C@H](N)CNC(=O)C(CCc1ccccc1)CCc1ccccc1 [Example 4, (S)—N-(2,3-diaminopropyl)-2-phenethyl-4-phenylbutanamide] | 1
